Measurements from PubChem BioAssay AID248 (DTP/NCI, 2004).
Where “and” joins values, the source holds several entries; their conditions need not be identical. Equal values may be shown once. Inconclusive results and toxic doses are left out.

Test system: L1210 leukemia ip in BDF1 mice, survival T/C
Test: NCI In Vivo Anticancer Drug Screen. Data for tumor model L1210 Leukemia (intraperitoneal) in B6D2F1 (BDF1) mice
Details: endpoint: mean survival time, higher = longer survival
In short: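 Transplanted-tumor mice were given test agent; controls received vehicle only. Survival readings from the two groups were divided (treated over control).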

[1] = dose: 100.0 mg/kg/injection, schedule: Q01DX009 (ip), vehicle: saline with Tween-80
[2] = dose: 200.0 mg/kg/injection, schedule: Q01DX009 (ip), vehicle: saline with Tween-80
[3] = dose: 100.0 mg/kg/injection, schedule: Q04DX002 (ip), vehicle: saline with Tween-80
[4] = dose: 400.0 mg/kg/injection, schedule: Q04DX002 (ip), vehicle: saline with Tween-80
[5] = dose: 75.0 mg/kg/injection, schedule: Q01DX001 (ip), vehicle: carboxymethylcellulose (CMC)
[6] = dose: 100.0 mg/kg/injection, schedule: Q04DX003 (ip), vehicle: Klucel (hydroxypropylcellulose) (HPC)
[7] = dose: 200.0 mg/kg/injection, schedule: Q04DX003 (ip), vehicle: Klucel (hydroxypropylcellulose) (HPC)
[8] = dose: 400.0 mg/kg/injection, schedule: Q04DX003 (ip), vehicle: Klucel (hydroxypropylcellulose) (HPC)
[9] = dose: 100.0 mg/kg/injection, schedule: Q04DX002 (ip), vehicle: Klucel (hydroxypropylcellulose) (HPC)
[10] = dose: 200.0 mg/kg/injection, schedule: Q04DX002 (ip), vehicle: Klucel (hydroxypropylcellulose) (HPC)
[11] = dose: 100.0 mg/kg/injection, schedule: Q04DX003 (ip), vehicle: saline with Tween-80
[12] = dose: 200.0 mg/kg/injection, schedule: Q04DX003 (ip), vehicle: saline with Tween-80
[13] = dose: 100.0 mg/kg/injection, schedule: Q01DX009 (ip), vehicle: saline
[14] = dose: 200.0 mg/kg/injection, schedule: Q01DX009 (ip), vehicle: saline
[15] = dose: 400.0 mg/kg/injection, schedule: Q01DX009 (ip), vehicle: saline
[16] = dose: 400.0 mg/kg/injection, schedule: Q01DX009 (ip), vehicle: saline with Tween-80
[17] = dose: 100.0 mg/kg/injection, schedule: Q01DX009 (ip), vehicle: Klucel (hydroxypropylcellulose) (HPC)
[18] = dose: 200.0 mg/kg/injection, schedule: Q01DX009 (ip), vehicle: Klucel (hydroxypropylcellulose) (HPC)
[19] = dose: 400.0 mg/kg/injection, schedule: Q01DX009 (ip), vehicle: Klucel (hydroxypropylcellulose) (HPC)
[20] = dose: 400.0 mg/kg/injection, schedule: Q04DX002 (ip), vehicle: Klucel (hydroxypropylcellulose) (HPC)
[21] = dose: 100.0 mg/kg/injection, schedule: Q01DX001 (ip), vehicle: Klucel (hydroxypropylcellulose) (HPC)
[22] = dose: 400.0 mg/kg/injection, schedule: Q01DX001 (ip), vehicle: Klucel (hydroxypropylcellulose) (HPC)

With CC1=C(OCC(C)C)CCCC1=O the T/C (dose: 50.0 mg/kg/injection, schedule: Q01DX009 (ip), vehicle: saline with Tween-80) was 88 % of control, the T/C [1] was 96 % of control and the T/C [2] was 96 % of control.

For Cc1cccc(C)c1Nc1n[nH]c(=S)s1, the T/C [3] was 102 % of control, the T/C (dose: 200.0 mg/kg/injection, schedule: Q04DX002 (ip), vehicle: saline with Tween-80) was 105 % of control and the T/C [4] was 105 % of control.

O=S1(=O)CC2C3C=CC(O3)C21 (stereo not drawn) was tested, and the T/C [5] was 102 % of control and the T/C (dose: 150.0 mg/kg/injection, schedule: Q01DX001 (ip), vehicle: carboxymethylcellulose (CMC)) was 98 % of control.

For O=C(Cn1cnc2c(=S)nc[nH]c21)Oc1ccc([N+](=O)[O-])cc1, the T/C [1] was 98 % of control, the T/C [6] was 96 % of control and the T/C [7] was 105 % of control. For the same compound, the T/C [8] was 94 % of control.

With COc1ccc(C(=O)Nc2ccc(C3=NCCN3)cc2)cc1C(=O)Nc1ccc(C2=NCCN2)cc1 the T/C (dose: 3.75 mg/kg/injection, schedule: Q01DX Z (ip), vehicle: saline) was 101 % of control, the T/C (dose: 7.5 mg/kg/injection, schedule: Q01DX Z (ip), vehicle: saline) was 116 % of control and the T/C (dose: 30.0 mg/kg/injection, schedule: Q01DX Z (ip), vehicle: saline) was 181 % of control. The T/C (dose: 60.0 mg/kg/injection, schedule: Q01DX Z (ip), vehicle: saline) was 266 % of control and the T/C (dose: 120.0 mg/kg/injection, schedule: Q01DX Z (ip), vehicle: saline) was 110 % of control.

For CCOC(=S)Nc1ccccc1[N+](=O)[O-], the T/C (dose: 100.0 mg/kg/injection, schedule: Q04DX002 (ip), vehicle: gum acacia) was 102 % of control, the T/C (dose: 200.0 mg/kg/injection, schedule: Q04DX002 (ip), vehicle: gum acacia) was 105 % of control and the T/C (dose: 400.0 mg/kg/injection, schedule: Q04DX002 (ip), vehicle: gum acacia) was 102 % of control.

With CCOC(=O)C1=NN(c2ccccc2)C(=O)C1N=Nc1ccc(S(=O)(=O)Nc2ccccn2)cc1 (stereo not drawn) the T/C (dose: 100.0 mg/kg/injection, schedule: Q01DX001 (ip), vehicle: saline) was 102 % of control, the T/C (dose: 200.0 mg/kg/injection, schedule: Q01DX001 (ip), vehicle: saline) was 96 % of control and the T/C (dose: 400.0 mg/kg/injection, schedule: Q01DX001 (ip), vehicle: saline) was 93 % of control.

CCCCn1cc(COCC)c(=O)[nH]c1=O was tested, and the T/C (dose: 50.0 mg/kg/injection, schedule: Q04DX002 (ip), vehicle: Klucel (hydroxypropylcellulose) (HPC)) was 98 % of control, the T/C [9] was 102 % of control and the T/C [10] was 98 % of control.

With O=[N+]([O-])c1ccc(NN=C2c3ccccc3Cc3ccccc32)c([N+](=O)[O-])c1 the T/C [3] was 87 % of control and the T/C [4] was 94 % of control.

CC(=O)CC(=O)CCc1ccccc1.CC(=O)CC(=O)CCc1ccccc1.[Cu] was tested, and the T/C [5] was 91 % of control.

For CCCCP(=S)(CCCC)C1CCCC1, the T/C [6] was 104 % of control, the T/C [7] was 107 % of control and the T/C [8] was 101 % of control.

For CSc1ccc(N=Cc2ccccc2O)cc1, the T/C (dose: 100.0 mg/kg/injection, schedule: Q01DX001 (ip), vehicle: carboxymethylcellulose (CMC)) was 93 % of control, the T/C (dose: 200.0 mg/kg/injection, schedule: Q01DX001 (ip), vehicle: carboxymethylcellulose (CMC)) was 93 % of control and the T/C (dose: 400.0 mg/kg/injection, schedule: Q01DX001 (ip), vehicle: carboxymethylcellulose (CMC)) was 98 % of control.

For CSc1ccc(NC(=O)CCCc2ccc(N(CCCl)CCCl)cc2)cc1, the T/C (dose: 4.0 mg/kg/injection, schedule: Q12HX018 (ip), vehicle: other) was 103 % of control, the T/C (dose: 6.0 mg/kg/injection, schedule: Q12HX018 (ip), vehicle: other) was 108 % of control and the T/C (dose: 8.0 mg/kg/injection, schedule: Q12HX018 (ip), vehicle: other) was 115 % of control.

For CCCCCCCCCCCCC[n+]1ccc(C#N)cc1, the T/C (dose: 7.5 mg/kg/injection, schedule: Q04DX003 (ip), vehicle: saline) was 101 % of control, the T/C (dose: 15.0 mg/kg/injection, schedule: Q04DX003 (ip), vehicle: saline) was 98 % of control and the T/C (dose: 30.0 mg/kg/injection, schedule: Q04DX003 (ip), vehicle: saline) was 101 % of control.

With O=C1CCS(=O)(=O)CC1 the T/C (dose: 50.0 mg/kg/injection, schedule: Q04DX003 (ip), vehicle: saline with Tween-80) was 92 % of control, the T/C [11] was 90 % of control and the T/C [12] was 89 % of control.

In the case of OC(Cc1ccnc2ccccc12)C(Cl)(Cl)Cl (stereo not drawn), the T/C [13] is reported as 95 % of control, the T/C [14] is reported as 101 % of control and the T/C [15] is reported as 95 % of control.

O=C(O)CSc1ccc(NC(=O)NC2CCCCC2)cc1 was tested, and the T/C [1] was 96 % of control, the T/C (dose: 100.0 mg/kg/injection, schedule: Q04DX003 (ip), vehicle: saline sonified) was 114 % of control and the T/C [2] was 91 % of control. For the same compound, the T/C (dose: 200.0 mg/kg/injection, schedule: Q04DX003 (ip), vehicle: saline sonified) was 89 % of control, the T/C [16] was 88 % of control and the T/C (dose: 400.0 mg/kg/injection, schedule: Q04DX003 (ip), vehicle: saline sonified) was 96 % of control.

CCOC(=O)c1ccc(NC(=O)Oc2ccccc2C(=O)OCc2ccccc2)cc1 was tested, and the T/C [17] was 98 % of control, the T/C [18] was 95 % of control and the T/C [19] was 96 % of control.

For CC/C=C(\CC(=O)OCC)C(=O)OCC, the T/C [1] was 101 % of control, the T/C [2] was 96 % of control and the T/C [16] was 92 % of control.

In the case of CC(=O)OCC(C)OC(C)=O (stereo not drawn), the T/C [13] is reported as 98 % of control, the T/C (dose: 100.0 mg/kg/injection, schedule: Q04DX003 (ip), vehicle: saline) is reported as 106 % of control and the T/C [14] is reported as 95 % of control. The T/C (dose: 200.0 mg/kg/injection, schedule: Q04DX003 (ip), vehicle: saline) was 97 % of control, the T/C [15] was 92 % of control and the T/C (dose: 400.0 mg/kg/injection, schedule: Q04DX003 (ip), vehicle: saline) was 97 % of control.

For CSc1ccc(NC(=O)Nc2ccc(NC(C)=O)cc2)cc1, the T/C [1] was 97 % of control, the T/C [2] was 98 % of control and the T/C [16] was 97 % of control.

For C=CC1=C(C)C(=O)N/C1=C\c1[nH]c(Cc2[nH]c(/C=C3/NC(=O)C(C(C)SC(C)=O)=C3C)cc2CCC(=O)O)c(CCC(=O)O)c1C (stereo not drawn), the T/C [9] was 101 % of control, the T/C [10] was 108 % of control and the T/C [20] was 97 % of control.

For O=CNc1ccccc1[N+](=O)[O-], the T/C [11] was 94 % of control and the T/C [12] was 94 % of control.

NC(=O)c1cc([N+](=O)[O-])c(Cl)c([N+](=O)[O-])c1 was tested, and the T/C (dose: 20.0 mg/kg/injection, schedule: Q04DX003 (ip), vehicle: Klucel (hydroxypropylcellulose) (HPC)) was 97 % of control, the T/C (dose: 40.0 mg/kg/injection, schedule: Q04DX003 (ip), vehicle: Klucel (hydroxypropylcellulose) (HPC)) was 97 % of control and the T/C (dose: 80.0 mg/kg/injection, schedule: Q04DX003 (ip), vehicle: Klucel (hydroxypropylcellulose) (HPC)) was 103 % of control.

CC(O)c1cccc(NC(=O)Nc2cccc(C(F)(F)F)c2)c1 (stereo not drawn) was tested, and the T/C [21] was 104 % of control, the T/C [17] was 100 % of control and 109 % of control and the T/C [9] was 110 % of control and 111 % of control. For the same compound, the T/C [6] was 99 % of control, the T/C (dose: 200.0 mg/kg/injection, schedule: Q01DX001 (ip), vehicle: Klucel (hydroxypropylcellulose) (HPC)) was 98 % of control and the T/C [18] was 107 % of control and 116 % of control. The T/C [10] was 108 % of control, the T/C [7] was 95 % of control and the T/C [22] was 98 % of control. For the same compound, the T/C [19] was 101 % of control and 89 % of control, the T/C [20] was 112 % of control and 115 % of control and the T/C [8] was 103 % of control.

O=C(O)c1ccccc1C(=O)c1ccc(CBr)cc1 was tested, and the T/C (dose: 6.25 mg/kg/injection, schedule: Q01DX009 (ip), vehicle: saline with Tween-80) was 92 % of control, the T/C (dose: 12.5 mg/kg/injection, schedule: Q01DX009 (ip), vehicle: saline with Tween-80) was 104 % of control and the T/C (dose: 25.0 mg/kg/injection, schedule: Q01DX009 (ip), vehicle: saline with Tween-80) was 97 % of control.

In the case of COc1ccc([N+](=O)[O-])cc1CNCCCl, the T/C [21] is reported as 100 % of control and the T/C [22] is reported as 94 % of control.
